The values below are quoted from earlier work in patent US6996473B2, “Method for screening and producing compound libraries” (Lion Bioscience AG, priority 1998, dated 2006).

Counter-ions that a name gives are not always drawn. Like-named read-outs stand apart in the source and are kept apart here.

One data set relates to rabbit intestinal tissue. Conditions: intestinal transport mechanism represented by the standard.
The conditions of data set [1]: Stomach.

With `O=C[C@H](O)[C@@H](O)[C@H](O)[C@H](O)CO` [D-glucose], the Transport mechanism entry with rabbit intestinal tissue was “Carrier-mediated Influx”.

In the case of `Nc1nc(O)c2ncn(COC(CO)CO)c2n1` [Gancyclovir, 9-(1,3-dihydroxy-2-propoxymethyl) guanine, monosodium salt], the Solubility (commonly the dissolved amount per volume that the medium holds) in data set [1] was 31 mg/mL. Under “Clinical 1505a”, the peak concentration (Cmax) (as a rule, the highest concentration seen after dosing) was 550 ng/mL and the Tmax (as a rule, the time from dosing to the highest level) was 1.43 h. Moreover, where the note is “Clinical 1505b”, the Cmax is 590 ng/mL and the Tmax is 1.43 h. Besides, under “fasted patients, oral”, the “bioavailability of fasted patients in clinical trials” value is 3-20%.

`OC[C@@H](O)[C@@H](O)[C@H](O)[C@H](O)CO` [mannitol]: in the data set with rabbit intestinal tissue, the Transport mechanism result is given as “Passive Paracellular”.
